≈ marks a conversion by molar mass, not a printed value. Where a SMILES comes first, the peptide text is derived from it. Bridges are numbered along the chain shown (N, C = ends).
Tests used:
[1] = system: Pectobacterium atrosepticum SCRI 1043; conditions: 24 h
Fusarium culmorum = conditions: 48 h
Fusarium graminearum = conditions: 48 h
[2] = system: Dickeya dadantii strain 3937; conditions: 24 h
[3] = system: Colletotrichum utrechtense; conditions: 72 h
Alternaria alternata = conditions: 72 h
[4] = Liposome leakage assay, fungal membrane model; conditions: read-out: EC50 of liposome permeabilization (carboxyfluorescein leakage); S. cerevisiae polar lipid extract:ergosterol 7:3 liposomes, Tris buffer, 45 min, % of Triton X-100 leakage, triplicate
F. oxysporum = assay: Cyclotide stability assay in F. oxysporum culture; format: in vitro ADME, Fusarium oxysporum; conditions: 5 days old F. oxysporum culture (3000 spores in 150 μl 24 g l^-1 PDB), 5 μg cyO2 per well, 3 days, HPLC-UV 280 nm AUC relative to time 0, mean of triplicates, unaltered molecular mass
Method: Freshly harvested F. oxysporum spores were grown in microplates (3000 spores in 150 μl of 24 g l^-1 PDB per well) on a rotary shaker. After 5 days of incubation, 5 μg of cyO2 in 10 μl of Milli-Q water was added to each well. Samples of the medium and mycelia were collected in Eppendorf tubes immediately after adding cyO2 (time 0) and after incubation with the cyclotide for 2, 4, 8h, 1, 2, and 3 days. The samples were freeze-dried, crushed with a pestle, and extracted with 200 μl of buffer B for 4 h on the rotary shaker. After centrifugation, the supernatant was collected, freeze-dried and reconstituted in buffer A for analysis by HPLC-UV-ESI-MS. HPLC was performed over 18 min using an LC-20 UFLC system (Shimadzu, Japan) with photodiode array detector (PDA) and a Waters (Milford, MA) XTerra MS C18 HPLC column (2.1 × 50 mm, with a particle size of 2.5 μm) at a flow rate of 0.5 ml min^-1 with a linear gradient from 5% to 60% ACN and 0.1% formic acid in water. ESI-MS detection was used to identify the cyO2 peak and to detect modifications of the peptide that may have been introduced by the fungus. For each incubation time, the peaks in the 280 nm UV chromatogram corresponding to cyO2 were integrated, and the mean area under the curve (AUC) for each incubation time was computed from independent triplicates. […]

Fusarium oxysporum = conditions: 0 h
Mycosphaerella fragariae = conditions: 48 h
[5] = system: Pseudomonas syringae pv. syringae strain Pss-762; assay: Antibacterial MIC assay (CLSI), P. syringae pv. syringae; format: cell-based; conditions: M9 minimal medium with 0.4% glucose, 24 h, 28°C, 1.5 × 10^6 CFU ml^-1, OD600 < 0.1, triplicate, repeated three times
Method: Cyclotides (cycloviolacin O2, O3, and O19) at concentrations of 0.78–100 μM were tested for activity against three bacterial plant pathogens: Pseudomonas syringae pv. syringae strain Pss-762 ([Taraszkiewicz et al., 2012]), Dickeya dadantii strain 3937 ([Glasner et al., 2011]) and Pectobacterium atrosepticum SCRI 1043 ([Bell et al., 2004]). Experiments were conducted according to the CLSI guidelines ([Clinical and Laboratory Standards Institute [CLSI], 2012]) using standard CA-MHB medium (BBL^TM Mueller-Hinton II Broth cation-adjusted, Becton Dickinson) or M9 minimal medium (per L: 6 g Na2HPO4, 3g KH2PO4, 0.5 g NaCl, 1 g NH4Cl) supplemented with glucose to a final concentration of 0.4%. Bacterial colonies from 24 h old cultures on TSA (trypticase soy agar, BioMerieux) plates were used to inoculate CA-MHB or M9 minimal medium and set up liquid cultures. Next, late log phase bacterial cultures were diluted to 0.5 McFarland standard, as determined by densimetry in the relevant medium (DensiMeter II, EMO, Brno). […] The minimal inhibitory concentration (MIC) of each cyclotide was determined as the lowest concentration required to inhibit bacterial growth, i.e., to reduce the culture’s OD600 to less than 0.1. OD600 values were measured with a microplate reader (EnVision^TM Multilabel Plate Reader, Perkin Elmer). […]

[6] = system: seven fungal plant pathogens; conditions: 0 h
Botrytis cinerea = conditions: 48 h

Compound	MIC [1]	MIC (Fusarium culmorum)	MIC (Fusarium graminearum)	MIC [2]	MIC [3]	MIC (Alternaria alternata)	EC50 [4]	initially added amount recovered after co-culture with F. oxysporum (F. oxysporum)	MIC at the inoculum used for immunogold labeling (Fusarium oxysporum)	MIC (Mycosphaerella fragariae)	MIC [5]	MICs, range or bound over the tested fungi [6]	MIC (Botrytis cinerea)
CC[C@H](C)[C@@H]1NC(=O)[C@H](C)NC(=O)[C@H](CO)NC(=O)[C@H](CO)NC(=O)[C@H]([C@@H](C)CC)NC(=O)[C@@H]2CSSC[C@@H]3NC(=O)[C@H](C(C)C)NC(=O)[C@H](CCCCN)NC(=O)[C@H](CO)NC(=O)[C@H](CCCCN)NC(=O)[C@@H]4CSSC[C@H](NC(=O)[C@H](CO)NC(=O)[C@H](CCC(=O)O)NC(=O)CNC(=O)[C@H](CSSC[C@H](NC(=O)CNC1=O)C(=O)N[C@@H](CO)C(=O)N4)NC(=O)[C@@H]1CCCN1C(=O)[C@H]([C@@H](C)CC)NC(=O)CNC(=O)[C@H](CC(N)=O)NC(=O)[C@H](CCCNC(=N)N)NC(=O)[C@H](Cc1ccc(O)cc1)NC3=O)C(=O)N[C@@H](C(C)C)C(=O)N[C@@H](Cc1c[nH]c3ccccc13)C(=O)N[C@@H]([C@@H](C)CC)C(=O)N1CCC[C@H]1C(=O)N2 [cyO2, cycloviolacin O2] (cyclo(AIGCSCKSKVCYRNGIPCGESCVWIPCISS); disulfide 4-18, 6-22, 11-27 (inferred); ring closure inferred)	100 µM (≈ 314 µg/mL)	1.5 µM (≈ 4.71 µg/mL)	6.25 µM (≈ 19.6 µg/mL)	75 µM (≈ 236 µg/mL)	6.25 µM (≈ 19.6 µg/mL)	1.5 µM (≈ 4.71 µg/mL)	72 nM	~100%	80 µM	>25 µM	–	–	–
CC[C@H](C)[C@@H]1NC(=O)[C@H](C)NC(=O)[C@H](CO)NC(=O)[C@H]([C@@H](C)O)NC(=O)[C@H](CC(C)C)NC(=O)[C@@H]2CSSC[C@@H]3NC(=O)[C@H](C(C)C)NC(=O)[C@H](CCCCN)NC(=O)[C@H](CO)NC(=O)[C@H](CCCCN)NC(=O)[C@@H]4CSSC[C@H](NC(=O)[C@H](CO)NC(=O)[C@H](CCC(=O)O)NC(=O)CNC(=O)[C@H](CSSC[C@H](NC(=O)CNC1=O)C(=O)N[C@@H](CO)C(=O)N4)NC(=O)[C@@H]1CCCN1C(=O)[C@H]([C@@H](C)CC)NC(=O)CNC(=O)[C@H](CC(N)=O)NC(=O)[C@H](CCCNC(=N)N)NC(=O)[C@H](Cc1ccc(O)cc1)NC3=O)C(=O)N[C@@H](C(C)C)C(=O)N[C@@H](Cc1c[nH]c3ccccc13)C(=O)N[C@@H]([C@@H](C)CC)C(=O)N1CCC[C@H]1C(=O)N2 [cyO3] (cyclo(AIGCSCKSKVCYRNGIPCGESCVWIPCLTS); disulfide 4-18, 6-22, 11-27)	100 µM (≈ 315 µg/mL)	–	–	75 µM (≈ 237 µg/mL)	6.25 µM (≈ 19.7 µg/mL)	0.8 µM (≈ 2.52 µg/mL)	67 nM	–	–	–	25 µM (≈ 78.9 µg/mL)	0.8 to 12.5 µM	1.5 µM (≈ 4.73 µg/mL)
CC[C@H](C)[C@@H]1NC(=O)[C@H](C)NC(=O)[C@H](C)NC(=O)[C@H](CO)NC(=O)[C@H]([C@@H](C)CC)NC(=O)[C@@H]2CSSC[C@@H]3NC(=O)[C@H](C(C)C)NC(=O)[C@H](CCCCN)NC(=O)[C@H](CO)NC(=O)[C@H](CCCCN)NC(=O)[C@@H]4CSSC[C@H](NC(=O)[C@H](CO)NC(=O)[C@H](CCC(=O)O)NC(=O)CNC(=O)[C@H](CSSC[C@H](NC(=O)CNC1=O)C(=O)N[C@@H](CO)C(=O)N4)NC(=O)[C@@H]1CCCN1C(=O)[C@H]([C@@H](C)CC)NC(=O)CNC(=O)[C@H](CC(N)=O)NC(=O)[C@H](CCCNC(=N)N)NC(=O)[C@H](Cc1ccc(O)cc1)NC3=O)C(=O)N[C@@H](C(C)C)C(=O)N[C@@H](Cc1c[nH]c3ccccc13)C(=O)N[C@@H]([C@@H](C)CC)C(=O)N1CCC[C@H]1C(=O)N2 [cyO13] (cyclo(AAIGCSCKSKVCYRNGIPCGESCVWIPCIS); disulfide 5-19, 7-23, 12-28)	–	–	–	–	6.25 µM (≈ 19.5 µg/mL)	3 µM (≈ 9.37 µg/mL)	130 nM	–	–	–	–	–	3 µM (≈ 9.37 µg/mL)
CC[C@H](C)[C@@H]1NC(=O)[C@@H]2CSSC[C@@H]3NC(=O)[C@H](C(C)C)NC(=O)[C@H](CCCCN)NC(=O)[C@H](CO)NC(=O)[C@H](CCCCN)NC(=O)[C@@H]4CSSC[C@H](NC(=O)[C@H](CO)NC(=O)[C@H](CCC(=O)O)NC(=O)CNC(=O)[C@H](CSSC[C@H](NC(=O)CNC(=O)[C@H](C(C)C)NC(=O)[C@H](C(C)C)NC(=O)[C@H](CO)NC(=O)[C@H](CO)NC1=O)C(=O)N[C@@H](CO)C(=O)N4)NC(=O)[C@@H]1CCCN1C(=O)[C@H](CC(C)C)NC(=O)[C@H]([C@@H](C)O)NC(=O)CNC(=O)[C@H](CC(=O)O)NC(=O)[C@H](CCCCN)NC(=O)[C@H](Cc1ccc(O)cc1)NC3=O)C(=O)N[C@@H](C(C)C)C(=O)N[C@@H](Cc1c[nH]c3ccccc13)C(=O)N[C@@H]([C@@H](C)CC)C(=O)N1CCC[C@H]1C(=O)N2 [cyO19] (cyclo(CGESCVWIPCISSVVGCSCKSKVCYKDGTLP); disulfide 1-17, 5-19, 10-24)	100 µM (≈ 323 µg/mL)	1.5 µM (≈ 4.84 µg/mL)	12.5 µM (≈ 40.4 µg/mL)	75 µM (≈ 242 µg/mL)	6.25 µM (≈ 20.2 µg/mL)	1.5 µM (≈ 4.84 µg/mL)	80 nM	–	–	>25 µM	25 µM (≈ 80.7 µg/mL)	–	1.5 µM (≈ 4.84 µg/mL)
CC(C)C[C@@H]1NC(=O)CNC(=O)[C@H](CC(N)=O)NC(=O)[C@H](CCCNC(=N)N)NC(=O)[C@H]([C@@H](C)O)NC(=O)[C@@H]2CSSC[C@@H]3NC(=O)[C@H]([C@@H](C)O)NC(=O)CNC(=O)CNC(=O)[C@H](C(C)C)NC(=O)[C@@H]4CSSC[C@H](NC(=O)[C@H]([C@@H](C)O)NC(=O)[C@H](CSSC[C@H](NC(=O)[C@H](C(C)C)NC(=O)[C@@H]5CCCN5C1=O)C(=O)NCC(=O)N[C@@H](CCC(=O)O)C(=O)N[C@@H]([C@@H](C)O)C(=O)N4)NC(=O)CNC(=O)[C@@H]1CCCN1C(=O)[C@H]([C@@H](C)O)NC(=O)[C@H](CC(N)=O)NC3=O)C(=O)N[C@@H](CO)C(=O)N[C@@H](Cc1c[nH]c3ccccc13)C(=O)N1CCC[C@H]1C(=O)N[C@@H](C(C)C)C(=O)N2 [kB1, kalata B1]	–	>80 µM	>80 µM	–	–	–	–	–	–	>80 µM	–	–	80 µM (≈ 231 µg/mL)
CC(C)C[C@@H]1NC(=O)CNC(=O)[C@H](CC(N)=O)NC(=O)[C@H](CCCNC(=N)N)NC(=O)[C@H]([C@@H](C)O)NC(=O)[C@@H]2CSSC[C@@H]3NC(=O)[C@H]([C@@H](C)O)NC(=O)CNC(=O)CNC(=O)[C@H](C(C)C)NC(=O)[C@@H]4CSSC[C@H](NC(=O)[C@H](CO)NC(=O)[C@H](CSSC[C@H](NC(=O)[C@H](C(C)C)NC(=O)[C@@H]5CCCN5C1=O)C(=O)NCC(=O)N[C@@H](CCC(=O)O)C(=O)N[C@@H]([C@@H](C)O)C(=O)N4)NC(=O)CNC(=O)[C@@H]1CCCN1C(=O)[C@H]([C@@H](C)O)NC(=O)[C@H](CC(N)=O)NC3=O)C(=O)N[C@@H](CO)C(=O)N[C@@H](Cc1c[nH]c3ccccc13)C(=O)N1CCC[C@H]1C(=O)N[C@@H](C(C)C)C(=O)N2 [varv A]	–	40 µM (≈ 115 µg/mL)	40 µM (≈ 115 µg/mL)	–	–	–	–	–	–	>80 µM	–	–	80 µM (≈ 230 µg/mL)

— publication PMC6141879, “How Does the Sweet Violet (Viola odorata L.) Fight Pathogens and Pests – Cyclotides as a Comprehensive Plant Host Defense System” (Frontiers in Plant Science, 2018)
